pEC50: −log10 of the molar value.
What was measured:
[1] = tested on: Eotaxin-3 release in human whole blood stimulated with IL-4; assay: Human Whole Blood Eotaxin-3 Assay (IL-4 stimulated eotaxin-3 release); assay type: cell-based; conditions: IL-4 stimulation, 48 h, values given for compounds with >80% Emax, geometric mean
In short: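 Eotaxin-3 (CCL26) release measured by MSD kit in plasma supernatant after 48 h IL-4 stimulation ([…]) of human whole blood. Compounds added in triplicate 4-fold dilutions 2 h before stimulation; 0.5% DMSO final, 37° C, 5% CO2.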

STAT6 = target: T1, STAT6 (Homo sapiens, UniProt P42226); assay: Stat6 Degrader Assay (HiBiT based, HeLa LgBiT clone 4.14); assay type: cell-based; conditions: HeLa LgBiT clone 4.14 HiBiT-STAT6, 4-24 h incubation; values given for compounds with >80% Emax; geometric mean; read-out: STAT6 degradation DC50
T1 construct: These cells express endogenous STAT6; host or cells: HeLa LgBiT clone 4.14
T1 sequence (P42226 1-847): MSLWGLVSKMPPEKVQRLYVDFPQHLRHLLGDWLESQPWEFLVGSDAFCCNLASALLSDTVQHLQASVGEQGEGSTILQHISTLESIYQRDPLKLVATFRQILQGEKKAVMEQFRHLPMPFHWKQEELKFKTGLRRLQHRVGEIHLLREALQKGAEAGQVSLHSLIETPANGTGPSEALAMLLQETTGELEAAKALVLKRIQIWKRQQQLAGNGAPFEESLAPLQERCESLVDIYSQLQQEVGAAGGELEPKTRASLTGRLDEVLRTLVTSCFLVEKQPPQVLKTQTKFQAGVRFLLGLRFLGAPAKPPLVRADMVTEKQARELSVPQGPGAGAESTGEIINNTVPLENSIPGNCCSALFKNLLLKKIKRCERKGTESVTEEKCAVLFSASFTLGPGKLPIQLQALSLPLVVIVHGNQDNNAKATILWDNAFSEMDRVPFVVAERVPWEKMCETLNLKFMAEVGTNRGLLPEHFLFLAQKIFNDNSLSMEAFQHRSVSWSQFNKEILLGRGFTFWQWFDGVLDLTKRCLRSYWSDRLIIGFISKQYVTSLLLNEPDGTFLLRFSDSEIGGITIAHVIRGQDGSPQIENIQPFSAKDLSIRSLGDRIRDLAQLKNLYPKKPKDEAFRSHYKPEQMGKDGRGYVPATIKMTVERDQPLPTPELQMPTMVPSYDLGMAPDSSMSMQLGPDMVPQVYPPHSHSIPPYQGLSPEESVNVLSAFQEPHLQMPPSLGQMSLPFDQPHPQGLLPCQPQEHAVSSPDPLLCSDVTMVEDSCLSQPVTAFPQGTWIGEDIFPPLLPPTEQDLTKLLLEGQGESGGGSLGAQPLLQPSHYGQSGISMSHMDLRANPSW
In short: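 Luminescence from HiBiT-STAT6 complementing stably expressed LgBiT in HeLa clone 4.14 reports remaining STAT6 protein. Cells (5000/well) exposed to compound for 4-24 h at 37° C; read 0.5 h after Nano-Glo addition. 100% degradation window set with 50 μM terfenadine; percent degradation plotted against concentration.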

Q: `CNc1ccn(-c2ccnc3c2cc(CN2CCC(c4c(F)cc(C(=O)N5CCC(CN6CCN(Cc7ccc8c(c7)n(C)c(=O)n8C7CCC(=O)NC7=O)CC6)CC5)cc4F)CC2)n3C)c(=O)c1` (stereo not shown) [Example 3u29, 3-(5-((4-((1-(3,5-difluoro-4-(1-((1-methyl-4-(4-(methylamino)-2-oxopyridin-1 (2H)-yl)-1H-pyrrolo[2,3-b]pyridin-2-yl)methyl)piperidin-4-yl)benzoyl)piperidin-4-yl)methyl)piperazin-1-yl)methyl)-3-methyl-2-oxo-2,3-dihydro-1H-benzo[d]imidazol-1-yl)piperidine-2,6-dione] was tested. Which pEC50 [1] did it give?
A: Its pEC50 is 9.05.

Q: And the DC50 (STAT6)?
A: The DC50 was 1.7 nM.

Q: What does the source list for `CNc1cc(=O)n(-c2ccnc3c2cc([C@H](C)N2CC=C(c4c(C)cc(C(=O)N5CCC(CN6CCN(Cc7ccc8c(c7)n(C)c(=O)n8C7CCC(=O)NC7=O)CC6)CC5)cc4F)CC2)n3C)cc1F` (stereo partly drawn) [Example 3u13, 3-(5-((4-((1-(3-fluoro-4-(1-((S)-1-(4-(5-fluoro-4-(methylamino)-2-oxopyridin-1 (2H)-yl)-1-methyl-1H-pyrrolo[2,3-b]pyridin-2-yl)ethyl)-1,2,3,6-tetrahydropyridin-4-yl)-5-methylbenzoyl)-piperidin-4-yl)methyl)piperazin-1-yl)methyl)-3-methyl-2-oxo-2,3-dihydro-1H-benzo[d]imidazol-1-yl)piperidine-2,6-dione]?
A: pEC50 [1]: 9.00; DC50 (STAT6): 0.7 nM

Q: `C[C@H]1CN(Cc2ccc3c(c2)n(C)c(=O)n3C2CCC(=O)NC2=O)CCN1CC1CCN(C(=O)c2cc(F)c(C3CCN(Cc4cc5c(-n6ccc7c(c6=O)CCN7)ccnc5n4C)CC3)c(F)c2)CC1` (stereo partly drawn) [Example 3u311, 3-(5-(((S)-4-((1-(3,5-difluoro-4-(1-((1-methyl-4-(4-oxo-1,2,3,4-tetrahydro-5H-pyrrolo[3,2-c]pyridin-5-yl)-1H-pyrrolo[2,3-b]pyridin-2-yl)methyl)piperidin-4-yl)benzoyl)piperidin-4-yl)methyl)-3-methylpiperazin-1-yl)methyl)-3-methyl-2-oxo-2,3-dihydro-1H-benzo[d]imidazol-1-yl)piperidine-2,6-dione] was tested. Which pEC50 [1] did it give?
A: Its pEC50 is 9.40.

Q: What about the DC50 (STAT6) of the same molecule?
A: The DC50 was 0.5 nM.

Q: Which results are given for `CNc1cc(=O)n(-c2ccnc3c2cc([C@H](C)N2CC=C(c4c(C)cc(C(=O)N5CCC(CN6CCN(Cc7ccc8c(c7)C(C)(C)C(=O)N8[C@@H]7CCC(=O)NC7=O)CC6)CC5)cc4F)CC2)n3C)cc1F` (single isomer, unassigned) [Example 3u89]?
A: pEC50 [1]: 7.36; DC50 (STAT6): 4.1 nM

Q: What does the source list for `CNc1ccn(-c2ccnc3c2cc([C@H](C)N2CC=C(c4c(C)cc(C(=O)N5CCC(CN6CCN(c7ccc8c(c7)n(C)c(=O)n8C7CCC(=O)NC7=O)CC6)CC5)cc4F)CC2)n3C)c(=O)c1` (stereo partly drawn) [Example 3u299, 3-(5-(4-((1-(3-fluoro-5-methyl-4-(1-((S)-1-(1-methyl-4-(4-(methylamino)-2-oxopyridin-1 (2H)-yl)-1H-pyrrolo[2,3-b]pyridin-2-yl)ethyl)-1,2,3,6-tetrahydropyridin-4-yl)benzoyl)piperidin-4-yl)methyl)piperazin-1-yl)-3-methyl-2-oxo-2,3-dihydro-1H-benzo[d]imidazol-1-yl)piperidine-2,6-dione]?
A: pEC50 [1]: 9.30; DC50 (STAT6): 0.9 nM

Q: `CNc1ccn(-c2ccnc3c2cc(CN2CC=C(c4c(C)cc(C(=O)N5CCC(CN6CCN(Cc7ccc8c(c7)n(C)c(=O)n8[C@@H]7CCC(=O)NC7=O)CC6)CC5)cc4F)CC2)n3C)c(=O)c1` (single isomer, unassigned) [Example 3u162] was tested. Which pEC50 [1] did it give?
A: Its pEC50 is 8.64.

Q: And the DC50 (STAT6)?
A: The DC50 was 3.3 nM.

Q: Which results are given for `CNc1ccn(-c2ccnc3c2cc([C@H](C)N2CC=C(c4c(C)cc(C(=O)N5CCC(CN6CCN(Cc7cc8c(cc7F)n([C@H]7CCC(=O)NC7=O)c(=O)n8C)C[C@@H]6C)CC5)cc4F)CC2)n3C)c(=O)c1` (single isomer, unassigned) [Example 3u208]?
A: pEC50 [1]: 9.10; DC50 (STAT6): 0.6 nM

Q: Which results are given for `CNc1cc(=O)n(-c2ccnc3c2cc([C@H](C)N2CC=C(c4c(C)cc(C(=O)N(C)c5ccc(C6CCN(Cc7ccc8c(c7)C(C)(C)C(=O)N8[C@@H]7CCC(=O)NC7=O)CC6)cc5)cc4F)CC2)n3C)cc1F` (single isomer, unassigned) [Example 3u235]?
A: pEC50 [1]: 8.85; DC50 (STAT6): 0.1 nM

Reference: patent US20250320206A1, “STAT6 DEGRADERS” (Gilead Sciences, Inc., priority 2024, published 2025)
